Values joined by “and” are separate entries in the source; they are usually repeats but may differ in a detail not shown here. Equal values may be shown once. “Also recorded” adds a separate entry of the source.
What was measured:
[1] = test system: patients with dry eye and blepharitis; assay: Safety evaluation: cataract and adverse reactions; assay type: in vivo, human
Text: (§1) 10 patients were enrolled and completed the study.

[2] = test system: patients with dry eye and blepharitis; assay: Safety evaluation: best-corrected visual acuity (BCVA); details: baseline to study completion
[3] = test system: patients with dry eye and blepharitis; assay: Blepharitis score, topical statin pilot study; assay type: in vivo, human; design: Blepharitis score: scale not given here
Text: (§2) Aim: To investigate topical statin as a novel therapy for dry eyes associated with blepharitis. Methods: 10 patients with symptoms and signs of dry eye and blepharitis were enrolled in a prospective pilot study of topical statin therapy over 1 month. The primary outcome measure was corneal fluorescein staining. Results: An Improvement in corneal fluorescein staining by a 3 points from baseline to completion of the trial at week four was found in 6 of 10 patients in the study eye. Subjective dry eye symptoms improved (p=0.005). […] Conclusions: Topical statins are a suitable therapy for patients with dry eye and blepharitis. They can be easily manufactured and could be widely available.
as §1
(§3) Patients with • 1) Any symptoms of dry eyes and blepharitis • 2) Any signs of dry eyes: • BUT (tear break up time)≤5 sec, or • Punctate epithelial erosions in at least one eye • 3) Any signs of blepharitis: • Anterior lid margin—grease, skin scales, collarets, frank ulcers, loss of lashes and inflammation • Posterior lid margin—cheesy secretions, blocked meibomian glands >⅓, telangiectasia, meibomitis, notched lid margin and chalaza • 4) Male or female patients greater or equal to 18 years of age • 5) Patients able to give written informed consent and comply with study protocol […]
(§4) Patients were evaluated at weeks 1, 2, 3 and 4. […]

[4] = test system: patients with dry eye and blepharitis; assay: Tear film break-up time (BUT), topical statin pilot study; assay type: in vivo, human; details: 1 month topical therapy
Text: as §2, §1, §3, §4

[5] = test system: patients with dry eye and blepharitis; assay: Subjective dry eye symptom scores (global and individual), topical statin pilot study; assay type: in vivo, human; design: Global Symptom score: scale not given here
Text: as §2, §1
(§5) Patients with • 1) Any symptoms of dry eyes and blepharitis • 2) Any signs of dry eyes: • BUT (tear break up time)≤5 sec, or • Punctate epithelial erosions in at least one eye • 3) Any signs of blepharitis: • Anterior lid margin—grease, skin scales, collarets, frank ulcers, loss of lashes and inflammation • Posterior lid margin—cheesy secretions, blocked meibomian glands >⅓, telangiectasia, meibomitis, notched lid margin and chalaza • 4) Male or female patients greater or equal to 18 years of age • 5) Patients able to give written informed consent and comply with study protocol
(§6) • 1) Subjective • Total symptoms score • Face score (Goto et al 2002) • 2) Objective • a) Tear film break-up time (BUT) • b) Corneal fluorescein staining • b) Blepharitis score • c) Bulbar conjunctival injection • d) Concomitant use of topical therapy
(§7) Patients were evaluated at weeks 1, 2, 3 and 4. However, the primary endpoint was at trial completion (4 weeks). A p value <0.050 was considered statistically significant.

[6] = test system: patients with dry eye and blepharitis; assay: Corneal fluorescein staining (National Eye Institute scoring 0-15), topical statin pilot study; assay type: in vivo, human
Text: as §2, §1, §5, §6, §7

[7] = test system: patients with dry eye and blepharitis; assay: Schirmer I test, topical statin pilot study; assay type: in vivo, human; details: baseline to week four
Text: as §2, §1, §5, §4

[8] = test system: patients with dry eye and blepharitis; assay: Safety evaluation: intraocular pressure (IOP); details: baseline to study completion
[9] = test system: patients with dry eye and blepharitis; assay: Face score (facial analogue scale, Goto et al 2002), topical statin pilot study; assay type: in vivo, human; design: Facescale score: scale not given here
Text: as §2, §1, §3, §4

[10] = test system: patients with dry eye and blepharitis; assay: Concomitant use of topical lubricants, topical statin pilot study; assay type: in vivo, human
Text: as §1, §6
Prior to the study, 6 patients were using topical lubricants an average of 6 times a day (range 2 to 8. SD 2.3); 4 of these patients were using preservative-free lubricants. At study completion, 2 patients had ceased their topical lubrication, and 3 of the remaining 4 patients had reduced the frequency of lubricant use to an average of 4 times a day (range 3 to […]). […] One patient had had punctal occlusion in the study eye. 4 patients were performing lid massage with hot compresses and 4 were using a cotton bud for lid hygiene, 1 with bicarbonate of soda solution and 2 with shampoo. Patients were asked not to change these regimes during the study period.

[11] = 1 month, study eye, individual patients 1-10, listed as topical statin

CC(C)c1c(C(=O)Nc2ccccc2)c(-c2ccccc2)c(-c2ccc(F)cc2)n1CC[C@@H](O)C[C@@H](O)CC(=O)O [Atorvastatin]
Adverse events / side-effects ([1]; 1 month topical therapy, both eyes, 10 patients, listed as topical statin): no serious or irreversible side-effects; also recorded: No adverse events were reported
Cataract development ([1]; baseline to study completion): no patient developed cataract
Change in BCVA, fellow eye (in words) [2]: no significant change
Change in BCVA, study eye (in words) [2]: no significant change
Effect on blepharitis score (in words) ([3]; 1 month topical therapy): significantly improved
Blepharitis score [3, 11]: 7 (2×) and 5 (3×) and 4 (3×) and 2 (2×)
Effect on tear film break-up time (in words) [4]: significantly improved
Effect on subjective dry eye symptoms (in words) ([5]; 1 month topical therapy): improved
Global Symptom score [5, 11]: 5 and 0 (5×) and 3 and 4 and 1 and 2
Change in blurred vision score (in words) ([5]; enrolment to week four): no significant change
Change in discomfort score (in words) ([5]; enrolment to week four): significant improvement
Change in dryness score (in words) ([5]; enrolment to week four): significant improvement
Change in foreign body sensation score (in words) ([5]; enrolment to week four): significant improvement
Change in photophobia score (in words) ([5]; enrolment to week four): no significant change
Change in redness score (in words) ([5]; enrolment to week four): significant improvement
Change in watering score (in words) ([5]; enrolment to week four): significant improvement
Corneal fluorescein score ([6]; 1 month, NEI scale 0-15, individual patients 1-10, 50 microM, 8 times a day, listed as topical statin): 1 (2×) and 0 (4×) and 2 (3×) and 4
Patients with improvement in corneal fluorescein staining by three or more points ([6]; of 10 patients, baseline to week four): 6 patients
Patients with corneal fluorescein staining score improved by more than one point ([6]; of the 10 patients): 9 patients
Change in Schirmer I test result (in words) [7]: no significant change
Change in IOP, study eye (in words) [8]: no change
Facescale score ([9]; 1 month, facial analogue scale, individual patients 1-10, listed as topical statin): 4 (3×) and 1 and 3 (2×) and 5 (3×) and 2
Change in face score (in words) ([9]; enrolment to week four): significant improvement
Patients who had ceased their topical lubrication at study completion ([10]; of 6 patients using topical lubricants prior to the study): 2 patients
Patients who had reduced the frequency of lubricant use ([10]; of the remaining 4 patients, at study completion): 3 patients
Average frequency of lubricant use at study completion ([10]; range 3 to 6, SD 0.6, prior to the study average 6 times a day): 4 times a day
